Laboratory results: EPA's CvTdb concentration-time database

How the values were obtained:
Rat [1] = assay: concentration in plasma after dosing; conditions: dosed: Perfluorodecanoic acid, 2 mg/kg, iv, Male, F344
Rat [2] = assay: concentration in brain after dosing; conditions: dosed: Perfluorodecanoic acid, 10 mg/kg, oral
Rat [3] = assay: concentration in liver after dosing
Rat [4] = assay: concentration in kidney after dosing; conditions: 864 h; dosed: Perfluorodecanoic acid; 10 mg/kg; oral; Male; Harlan Sprague Dawley
Rat [5] = assay: concentration in plasma after dosing
Rat [6] = assay: concentration in plasma after dosing; conditions: dosed: Perfluorodecanoic acid, 2 mg/kg, iv, Male, F344; remark: listed apart in the source
Rat [7] = assay: concentration in kidney after dosing; conditions: dosed: Perfluorodecanoic acid, 10 mg/kg, oral
Rat [8] = assay: concentration in heart after dosing; conditions: dosed: Bis 2-Chloroethoxy Methane, 20 mg/kg, iv
Rat [9] = assay: concentration in thymus after dosing; conditions: 10 min; dosed: Bis 2-Chloroethoxy Methane; 20 mg/kg; iv; Male; F344
Rat [10] = assay: concentration in plasma after dosing; conditions: 3 h; dosed: Bis 2-Chloroethoxy Methane; 20 mg/kg; iv; Male; F344
Rat [11] = assay: concentration in heart after dosing; conditions: 10 min; dosed: Bis 2-Chloroethoxy Methane; 20 mg/kg; iv; Male; F344
Rat [12] = assay: concentration in thymus after dosing; conditions: dosed: Bis 2-Chloroethoxy Methane, 20 mg/kg, iv

O=C(O)C(F)(F)C(F)(F)C(F)(F)C(F)(F)C(F)(F)C(F)(F)C(F)(F)C(F)(F)C(F)(F)F [Perfluorodecanoic acid]
concentration in plasma [ng/mL]
Conditions | 5 min | 24 h | 192 h | 1848 h | 2520 h
Rat [1] | 7330 | – | 3130 | – | 200
Rat [6] | – | 5580 | – | 884 | –

Conditions | concentration in brain, Rat [2] [ng/g] | concentration in kidney, Rat [7] [ng/g]
1 h, Female, Harlan Sprague Dawley | 581 | 18100
1 h, Male, Harlan Sprague Dawley | – | 12400
24 h, Female, Harlan Sprague Dawley | 2750 | 46800
24 h, Male, Harlan Sprague Dawley | 2360 | 24600
24 h, Male, Harlan Sprague Dawley - this seems too small | 2580 | 29500
864 h, Female, Harlan Sprague Dawley | 926 | 18300
864 h, Male, Harlan Sprague Dawley | 1240 | 11100
1848 h, Female, Harlan Sprague Dawley | 526 | 5210
1848 h, Male, Harlan Sprague Dawley | 602 | 4000
3360 h, Female, Harlan Sprague Dawley | – | 2740
3360 h, Male, Harlan Sprague Dawley | – | 1530

dosed: Perfluorodecanoic acid
Conditions | concentration in liver [ng/g] | concentration in plasma [ng/mL]
Rat [3], 1 h, 10 mg/kg, oral, Female, Harlan Sprague Dawley | 43800 | –
Rat [3], 1 h, 10 mg/kg, oral, Male, Harlan Sprague Dawley | 56500 | –
Rat [3], 24 h, 10 mg/kg, oral, Female, Harlan Sprague Dawley | 102000 | –
Rat [3], 24 h, 10 mg/kg, oral, Male, Harlan Sprague Dawley | 107000 | –
Rat [3], 24 h, 10 mg/kg, oral, Male, Harlan Sprague Dawley - this seems too small | 125000 | –
Rat [3], 864 h, 10 mg/kg, oral, Female, Harlan Sprague Dawley | 45900 | –
Rat [3], 864 h, 10 mg/kg, oral, Male, Harlan Sprague Dawley | 56700 | –
Rat [3], 1848 h, 10 mg/kg, oral, Female, Harlan Sprague Dawley | 21200 | –
Rat [3], 1848 h, 10 mg/kg, oral, Male, Harlan Sprague Dawley | 32600 | –
Rat [3], 3360 h, 10 mg/kg, oral, Female, Harlan Sprague Dawley | 7920 | –
Rat [3], 3360 h, 10 mg/kg, oral, Male, Harlan Sprague Dawley | 9980 | –
Rat [5], 0.5 h, 2 mg/kg, oral, Male, Harlan Sprague Dawley | – | 1650
Rat [5], 1 h, 2 mg/kg, iv, Male, F344 | – | 5650
Rat [5], 1 h, 2 mg/kg, oral, Male, Harlan Sprague Dawley | – | 3170
Rat [5], 2 h, 2 mg/kg, oral, Male, Harlan Sprague Dawley | – | 3960
Rat [5], 5 min, 2 mg/kg, iv, Female, Harlan Sprague-Dawley | – | 7650
Rat [5], 5 min, 2 mg/kg, iv, Male, F344 | – | 7380
Rat [5], 6 h, 2 mg/kg, iv, Male, F344 | – | 5650
Rat [5], 12 h, 2 mg/kg, iv, Female, Harlan Sprague-Dawley | – | 5320
Rat [5], 12 h, 2 mg/kg, iv, Male, F344 | – | 6200
Rat [5], 12 h, 2 mg/kg, oral, Male, Harlan Sprague Dawley | – | 7680
Rat [5], 24 h, 2 mg/kg, iv, Male, F344 | – | 4850
Rat [5], 24 h, 2 mg/kg, oral, Male, Harlan Sprague Dawley | – | 6970
Rat [5], 192 h, 2 mg/kg, iv, Female, Harlan Sprague-Dawley | – | 5740
Rat [5], 192 h, 2 mg/kg, iv, Male, F344 | – | 2770
Rat [5], 192 h, 2 mg/kg, oral, Male, Harlan Sprague Dawley | – | 4850
Rat [5], 528 h, 2 mg/kg, iv, Male, F344 | – | 2240
Rat [5], 528 h, 2 mg/kg, oral, Male, Harlan Sprague Dawley | – | 2640
Rat [5], 864 h, 2 mg/kg, iv, Male, F344 | – | 1230
Rat [5], 1200 h, 2 mg/kg, iv, Female, Harlan Sprague-Dawley | – | 2250
Rat [5], 1200 h, 2 mg/kg, iv, Male, F344 | – | 719
Rat [5], 1200 h, 2 mg/kg, oral, Male, Harlan Sprague Dawley | – | 1700
Rat [5], 1848 h, 2 mg/kg, iv, Male, F344 | – | 437
Rat [5], 1848 h, 2 mg/kg, oral, Male, Harlan Sprague Dawley | – | 907
Rat [5], 2520 h, 2 mg/kg, iv, Male, F344 | – | 124
Rat [5], 2520 h, 2 mg/kg, oral, Male, Harlan Sprague Dawley | – | 687
Rat [5], 3360 h, 2 mg/kg, iv, Male, F344 | – | 277
Rat [5], 3360 h, 2 mg/kg, oral, Male, Harlan Sprague Dawley | – | 498

Conditions | concentration in kidney [ng/g]
Rat [4] | 6720

ClCCOCOCCCl [Bis 2-Chloroethoxy Methane]
Conditions | concentration in heart, Rat [8] [ng/g] | concentration in thymus, Rat [12] [ng/g]
1 h, Female, F344 | 1530 | 2600
1 h, Male, F344 | 1400 | 3100
2 h, Female, F344 | 338 | 712
2 h, Male, F344 | 466 | 783
3 h, Female, F344 | 123 | 199
3 h, Male, F344 | 179 | 305
4 h, Female, F344 | 53.5 | 52.4
4 h, Male, F344 | 57.5 | 72.9
5 h, Female, F344 | 38.7 | 62.4
5 h, Male, F344 | 47.8 | 77.9
6 h, Female, F344 | 31.7 | 48.8
6 h, Male, F344 | 31.5 | 29.6
7 h, Female, F344 | – | 26.6
7 h, Male, F344 | 21.1 | 36
8 h, Female, F344 | – | 16.4
8 h, Female, Harlan Sprague-Dawley | 13.3 | 18.1
10 min, Female, F344 | 11300 | 33300
10 min, Male, F344 | 12200 | 66700
20 min, Female, F344 | 6050 | 22300
20 min, Male, F344 | 6780 | 13900
40 min, Female, F344 | 4450 | 12400
40 min, Male, F344 | 7060 | 7360

Conditions | concentration in heart [ng/g] | concentration in plasma [ng/mL] | concentration in thymus [ng/g]
Rat [9] | – | – | 45200
Rat [10] | – | 123 | –
Rat [11] | 12300 | – | –

dosed: Bis 2-Chloroethoxy Methane, iv
Conditions | concentration in liver, Rat [3] [ng/g] | concentration in plasma, Rat [5] [ng/mL]
1 h, 20 mg/kg, Female, F344 | 526 | 1380
1 h, 20 mg/kg, Male, F344 | 1620 | 1400
1 h, 40 mg/kg, Male, Harlan Sprague Dawley | – | 3850
2 h, 20 mg/kg, Female, F344 | 65.2 | 202
2 h, 20 mg/kg, Male, F344 | 640 | 336
2 h, 40 mg/kg, Male, Harlan Sprague Dawley | – | 648
3 h, 20 mg/kg, Female, F344 | – | 82.8
3 h, 20 mg/kg, Male, F344 | 121 | 119
3 h, 40 mg/kg, Male, Harlan Sprague Dawley | – | 333
4 h, 20 mg/kg, Female, F344 | – | 79
4 h, 20 mg/kg, Male, F344 | 66.5 | 117
4 h, 40 mg/kg, Male, Harlan Sprague Dawley | – | 139
5 h, 20 mg/kg, Female, F344 | – | 25.4
5 h, 20 mg/kg, Male, F344 | 31.1 | 32.6
5.333 h, 40 mg/kg, Male, Harlan Sprague Dawley | – | 74.6
6 h, 20 mg/kg, Female, F344 | – | 10.2
6 h, 20 mg/kg, Male, F344 | 26.2 | 28
6.667 h, 40 mg/kg, Male, Harlan Sprague Dawley | – | 45.9
7 h, 20 mg/kg, Male, F344 | – | 16
8 h, 20 mg/kg, Female, Harlan Sprague-Dawley | – | 11.2
8 h, 40 mg/kg, Male, Harlan Sprague Dawley | – | 15.7
10 min, 20 mg/kg, Female, F344 | 1570 | 9580
10 min, 20 mg/kg, Male, F344 | 3090 | 10400
10 min, 40 mg/kg, Male, Harlan Sprague Dawley | – | 23400
20 min, 20 mg/kg, Female, F344 | 2310 | 5400
20 min, 20 mg/kg, Male, F344 | 2860 | 4840
20 min, 40 mg/kg, Male, Harlan Sprague Dawley | – | 10200
40 min, 20 mg/kg, Female, F344 | 662 | 2110
40 min, 20 mg/kg, Male, F344 | 4290 | 2640
40 min, 40 mg/kg, Male, Harlan Sprague Dawley | – | 7610
